According to patent US20220331303A1, “USE OF AN OREXIN 2 RECEPTOR AGONIST FOR THE TREATMENT OF EXCESSIVE SLEEPINESS” (Takeda Pharmaceutical Company Limited, priority 2019, published 2022):
Where “and” joins values, the source holds several entries; their conditions need not be identical. Equal entries are not always repeated. Entries after “also recorded” stand apart in the source; their conditions may differ.

What was measured:
[1] = system: sleep-deprived healthy volunteers; assay: Maintenance of wakefulness test (MWT) in sleep-deprived healthy volunteers; type: in vivo, human; conditions: for Duration Total Microsleeps (MWT), LS Mean / Duration Total Microsleeps (MWT), LS Mean Difference vs placebo / Latency to Sleep Onset on MWT, LS Mean / Latency to Sleep Onset on MWT, LS Mean Difference vs placebo / Stage N1 Duration (MWT), LS Mean / Stage N1 Duration (MWT), LS Mean Difference vs placebo / Stage N2 Duration (MWT), LS Mean / Stage N2 Duration (MWT), LS Mean Difference vs placebo / Total Microsleeps (MWT), LS Mean / Total Microsleeps (MWT), LS Mean Difference vs placebo: Compound A 112 mg (HD)
Method: The primary objective of this study was to determine the effect of Compound A (methyl (2R,3S)-3-((methylsulfonyl)amino)-2-(((cis-4-phenylcyclohexyl)oxy)methyl)piperidine-1-carboxylate), 44 mg (low dose [LD]) and 112 mg (high dose [HD]), after a single IV dose (compared to placebo) on promoting wakefulness as measured by sleep latency on the MWT (performed at approximately 2, 4, 6, and 8 hours post-dosing starting at approximately 1:00 AM and then at approximate times of 3:00, 5:00, and 7:00 AM) in sleep-deprived healthy volunteers.
This was a phase 1b, single-center, randomized, double-blind, double-dummy, placebo- and active-controlled, 4-period Williams design crossover study to evaluate the PK, PD, and safety of Compound A in sleep-deprived healthy volunteers. Compound A was administered as a 9-hour IV infusion.
Healthy adult male subjects aged 18 to 40 years, inclusive, who satisfied the inclusion and exclusion criteria were enrolled in the trial. On Day 1 of treatment period 1, eligible subjects were equally randomized to 4 treatment sequence groups (sequence 1 to 4) which defined the order of administration for Compound A LD, Compound A HD (both delivered as a 9-hour IV infusion), modafinil 300 mg, and placebo.
(§1) During the day before dosing on Day 1, participants were administered the KSS at scheduled timepoints. A practice MWT session was performed on Day 1 treatment period 1 (only once during the entire study) to familiarize subjects with the procedures. Study drug was administered in the clinic in the evening on Day 1 of each treatment period. Subjects underwent the MWT and KSS at specified timepoints after the start of the infusion. Subjects were required to stay awake between the MWT tests. Following completion of the IV infusion on Day 2, subjects underwent an additional MWT test. When the final MWT test and cognitive testing were completed, subjects were allowed to sleep (recovery sleep) for approximately 6 hours. PSG recording was collected during this time. Subjects were discharged from the unit after completion on Day 2 with continuing actigraphy upon discharge (to begin on Day −6 before the next treatment period). The interval between each subsequent treatment period was at least 7 days to ensure that the subject's circadian rhythm had returned to a normal cycle. Subject's vital signs, including BP, were monitored during the dosing and testing period. Blood samples for determination of Compound A plasma concentrations were collected at specified timepoints on Days 1 and 2 of each treatment period. Subjects completed the Columbia-Suicide Severity Rating Scale (C-SSRS) during screening, before study drug administration, and before discharge on Day 2 of each treatment period.
Primary endpoint: Latency for each MWT, defined as time to sleep onset.

[2] = system: sleep-deprived healthy volunteers; assay: Safety/tolerability of a single dose in sleep-deprived healthy adults; type: in vivo, human
Method: as §1
Safety endpoints: adverse events (AEs), physical examinations, vital signs, 12-lead electrocardiograms (ECGs), clinical laboratory evaluations (hematology, blood chemistry, and urinalysis), drug-liking visual analogue scale, and Profile of Mood States.

[3] = average overall during infusion
[4] = Compound A 112 mg, after the end of infusion (1 hour post end of infusion)
[5] = HD: Compound A 112 mg, 2 HOURS POST INFUSION START
[6] = HD: Compound A 112 mg, 4 HOURS POST INFUSION START
[7] = HD: Compound A 112 mg, 6 HOURS POST INFUSION START
[8] = HD: Compound A 112 mg, 8 HOURS POST INFUSION START
[9] = HD: Compound A 112 mg, Average Overall, MWT during infusion
[10] = LD: Compound A 44 mg, 2 HOURS POST INFUSION START
[11] = LD: Compound A 44 mg, 4 HOURS POST INFUSION START
[12] = LD: Compound A 44 mg, 6 HOURS POST INFUSION START
[13] = LD: Compound A 44 mg, 8 HOURS POST INFUSION START
[14] = LD: Compound A 44 mg, Average Overall, MWT during infusion

What does the source list for `COC(=O)N1CCC[C@H](NS(C)(=O)=O)[C@@H]1CO[C@H]1CC[C@@H](c2ccccc2)CC1` [Compound A, methyl (2R,3S)-3-((methylsulfonyl)amino)-2-(((cis-4-phenylcyclohexyl)oxy)methyl)piperidine-1-carboxylate]?
Duration Total Microsleeps (MWT), LS Mean ([1]; 6 hours post infusion start): 0.43 s; Duration Total Microsleeps (MWT), LS Mean Difference vs placebo ([1]; 6 hours post infusion start): -6.97 s; Latency to Sleep Onset on MWT, LS Mean ([1]; 6 hours post infusion start): 38.36 min; Latency to Sleep Onset on MWT, LS Mean Difference vs placebo ([1]; 6 hours post infusion start): 32.21 min; Stage N1 Duration (MWT), LS Mean ([1]; 6 hours post infusion start): 0.07 min; Stage N1 Duration (MWT), LS Mean Difference vs placebo ([1]; 6 hours post infusion start): -1.08 min; Stage N2 Duration (MWT), LS Mean ([1]; 6 hours post infusion start): 0.06 min; Stage N2 Duration (MWT), LS Mean Difference vs placebo ([1]; 6 hours post infusion start): -0.44 min; Total Microsleeps (MWT), LS Mean ([1]; 6 hours post infusion start): 0.11; Total Microsleeps (MWT), LS Mean Difference vs placebo ([1]; 6 hours post infusion start): −1.14; Duration Total Microsleeps (MWT), LS Mean ([1]; 8 hours post infusion start): 5.21 s; Duration Total Microsleeps (MWT), LS Mean Difference vs placebo ([1]; 8 hours post infusion start): -2.59 s; Latency to Sleep Onset on MWT, LS Mean ([1]; 8 hours post infusion start): 36.86 min; Latency to Sleep Onset on MWT, LS Mean Difference vs placebo ([1]; 8 hours post infusion start): 33.33 min; Stage N1 Duration (MWT), LS Mean ([1]; 8 hours post infusion start): 0.18 min; Stage N1 Duration (MWT), LS Mean Difference vs placebo ([1]; 8 hours post infusion start): -0.97 min; Stage N2 Duration (MWT), LS Mean ([1]; 8 hours post infusion start): 0.28 min; Stage N2 Duration (MWT), LS Mean Difference vs placebo ([1]; 8 hours post infusion start): -0.82 min; Total Microsleeps (MWT), LS Mean ([1]; 8 hours post infusion start): 1.11; Total Microsleeps (MWT), LS Mean Difference vs placebo ([1]; 8 hours post infusion start): −0.19; Duration Total Microsleeps (MWT), LS Mean [1, 3]: 1.40 s; Duration Total Microsleeps (MWT), LS Mean Difference vs placebo [1, 3]: -7.68 s; Latency to Sleep Onset on MWT, LS Mean [1, 3]: 38.82 min and 38.82 (1.955) min; Latency to Sleep Onset on MWT, LS Mean Difference vs placebo [1, 3]: 30.21 min and 30.2 min and 30.21 (2.682) min; Stage N1 Duration (MWT), LS Mean [1, 3]: 0.04 min; Stage N1 Duration (MWT), LS Mean Difference vs placebo [1, 3]: -1.23 min; Stage N2 Duration (MWT), LS Mean [1, 3]: 0.09 min; Stage N2 Duration (MWT), LS Mean Difference vs placebo [1, 3]: -0.81 min; Total Microsleeps (MWT), LS Mean [1, 3]: 0.31; Latency to Sleep Onset on MWT, LS Mean (SE) [1, 4]: 2.36 (2.241); Latency to Sleep Onset on MWT, LS Mean Difference vs placebo, Estimate (SE) [1, 4]: −2.29 (2.752); Total Sleep Time LS Mean [1, 5]: 0.02 min; Total Sleep Time LS Mean Difference vs Placebo Estimate [1, 5]: -2.71 min; Total Wake Time LS Mean [1, 5]: 39.89 min; Total Wake Time LS Mean Difference vs Placebo Estimate [1, 5]: 22.17 min; Total Sleep Time LS Mean [1, 6]: -0.01 min; Total Sleep Time LS Mean Difference vs Placebo Estimate [1, 6]: -3.16 min; Total Wake Time LS Mean [1, 6]: 40.08 min; Total Wake Time LS Mean Difference vs Placebo Estimate [1, 6]: 30.03 min; Total Sleep Time LS Mean [1, 7]: 0.21 min; Total Sleep Time LS Mean Difference vs Placebo Estimate [1, 7]: -2.01 min; Total Wake Time LS Mean [1, 7]: 38.86 min; Total Wake Time LS Mean Difference vs Placebo Estimate [1, 7]: 32.44 min; Total Sleep Time LS Mean [1, 8]: 0.57 min; Total Sleep Time LS Mean Difference vs Placebo Estimate [1, 8]: -2.35 min; Total Wake Time LS Mean [1, 8]: 37.36 min; Total Wake Time LS Mean Difference vs Placebo Estimate [1, 8]: 33.71 min; Total Sleep Time LS Mean [1, 9]: 0.20 min; Total Sleep Time LS Mean Difference vs Placebo Estimate [1, 9]: -2.56 min; Total Wake Time LS Mean [1, 9]: 39.05 min; Total Wake Time LS Mean Difference vs Placebo Estimate [1, 9]: 29.59 min; Total Sleep Time LS Mean [1, 10]: 0.47 min; Total Sleep Time LS Mean Difference vs Placebo Estimate [1, 10]: -2.26 min; Total Wake Time LS Mean [1, 10]: 35.73 min; Total Wake Time LS Mean Difference vs Placebo Estimate [1, 10]: 18.00 min; Total Sleep Time LS Mean [1, 11]: 1.27 min; Total Sleep Time LS Mean Difference vs Placebo Estimate [1, 11]: -1.88 min; Total Wake Time LS Mean [1, 11]: 32.42 min; Total Wake Time LS Mean Difference vs Placebo Estimate [1, 11]: 22.37 min; Total Sleep Time LS Mean [1, 12]: 4.69 min; Total Sleep Time LS Mean Difference vs Placebo Estimate [1, 12]: 2.47 min; Total Wake Time LS Mean [1, 12]: 21.78 min; Total Wake Time LS Mean Difference vs Placebo Estimate [1, 12]: 15.36 min; Total Sleep Time LS Mean [1, 13]: 5.63 min; Total Sleep Time LS Mean Difference vs Placebo Estimate [1, 13]: 2.71 min; Total Wake Time LS Mean [1, 13]: 13.37 min; Total Wake Time LS Mean Difference vs Placebo Estimate [1, 13]: 9.72 min; Total Sleep Time LS Mean [1, 14]: 3.02 min; Total Sleep Time LS Mean Difference vs Placebo Estimate [1, 14]: 0.26 min; Total Wake Time LS Mean [1, 14]: 25.83 min; Total Wake Time LS Mean Difference vs Placebo Estimate [1, 14]: 16.36 min; Compound A plasma concentration at which magnitude of wake-promoting effects appeared to diminish over time ([1]; sleep latency vs plasma concentration by MWT session (FIG. 8)): less than 200 ng/mL; Effect on BP and pulse ([2]; Compound A 44 mg): minimal effect; Drug-related TEAE of liver function test increased, number of subjects ([2]; Compound A 112 mg, mild intensity): 1 subject; Serious adverse events (SAEs) ([2]; Compound A 44 and 112 mg treatments): no SAEs were observed; Changes in DBP versus Compound A plasma concentration ([2]; change from time-matched baseline): appeared to increase with increasing concentration; Tolerability ([2]; single dose 44 mg or 112 mg, slow infusion over 9 hours, healthy volunteers): well-tolerated with no major safety concerns; also recorded: well tolerated overall
